Assay results: ChEMBL document CHEMBL1201862, “PubChem BioAssay data set” (2004)
Active and inactive are the calls of the source.

Legend:
[1] = molecular target: Eukaryotic translation initiation factor 4E (Mus musculus, UniProt P63073); test: eIF4E–eIF4G protein interaction inhibitors, dose response, biochemical, TR-FRET (AID 855); format: functional;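 note: potency for disrupting eIF4E binding to eIF4GI seen as loss of FRET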
[2] = molecular target: Dual specificity tyrosine-phosphorylation-regulated kinase 1A (Rattus norvegicus, UniProt Q63470); format: biochemical, Homo sapiens
[3] = test system: HEK293; test: inhibitors of LMP1-driven NF-kB reporter, dose response, cell-based, HEK293, luciferase, cherry-pick (AID 588343); format: functional; conditions: Homo sapiens
[4] = molecular target: T1, Calpain-2 catalytic subunit (Sus scrofa, UniProt P43367); test: pig calpain II inhibitor potency, dose response, biochemical, fluorogenic peptide substrate (AID 1420); format: functional
T1 sequence (P43367 whole entry): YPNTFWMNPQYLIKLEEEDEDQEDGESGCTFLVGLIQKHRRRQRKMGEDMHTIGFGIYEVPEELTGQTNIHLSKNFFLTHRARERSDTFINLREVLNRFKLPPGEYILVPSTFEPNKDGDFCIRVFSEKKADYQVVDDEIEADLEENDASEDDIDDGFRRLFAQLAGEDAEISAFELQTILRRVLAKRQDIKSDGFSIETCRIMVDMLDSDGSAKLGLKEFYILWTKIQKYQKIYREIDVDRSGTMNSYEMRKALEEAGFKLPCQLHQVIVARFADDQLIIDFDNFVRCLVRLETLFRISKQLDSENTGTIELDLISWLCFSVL

[5] = cytotoxicity in HEK-293T cells, dose response, cytotoxicity control for TCR NF-kB inhibitor project, luminescence, T-cell screen hits (AID 489026); format: functional, cell-based;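 note: cells exposed to compound about 14 hours before the viability readout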
[6] = test system: Vero; test: cells; format: functional; conditions: Chlorocebus sabaeus
[7] = HEp-2 cell cytotoxicity, dose response, cytotoxicity control for RSV inhibitor project, HTS (AID 2410); format: functional; conditions: human respiratory syncytial virus
[8] = cells
[9] = test system: Vero; test: cells; format: functional, cell-based; conditions: Chlorocebus sabaeus
[10] = molecular target: Large T antigen (Simian virus 40, UniProt P03070); format: functional, Betapolyomavirus macacae;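 note: Confirmatory-stage PubChem screen for compounds that inhibit SV40 T antigen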
Large T antigen, sequence (P03070 whole entry): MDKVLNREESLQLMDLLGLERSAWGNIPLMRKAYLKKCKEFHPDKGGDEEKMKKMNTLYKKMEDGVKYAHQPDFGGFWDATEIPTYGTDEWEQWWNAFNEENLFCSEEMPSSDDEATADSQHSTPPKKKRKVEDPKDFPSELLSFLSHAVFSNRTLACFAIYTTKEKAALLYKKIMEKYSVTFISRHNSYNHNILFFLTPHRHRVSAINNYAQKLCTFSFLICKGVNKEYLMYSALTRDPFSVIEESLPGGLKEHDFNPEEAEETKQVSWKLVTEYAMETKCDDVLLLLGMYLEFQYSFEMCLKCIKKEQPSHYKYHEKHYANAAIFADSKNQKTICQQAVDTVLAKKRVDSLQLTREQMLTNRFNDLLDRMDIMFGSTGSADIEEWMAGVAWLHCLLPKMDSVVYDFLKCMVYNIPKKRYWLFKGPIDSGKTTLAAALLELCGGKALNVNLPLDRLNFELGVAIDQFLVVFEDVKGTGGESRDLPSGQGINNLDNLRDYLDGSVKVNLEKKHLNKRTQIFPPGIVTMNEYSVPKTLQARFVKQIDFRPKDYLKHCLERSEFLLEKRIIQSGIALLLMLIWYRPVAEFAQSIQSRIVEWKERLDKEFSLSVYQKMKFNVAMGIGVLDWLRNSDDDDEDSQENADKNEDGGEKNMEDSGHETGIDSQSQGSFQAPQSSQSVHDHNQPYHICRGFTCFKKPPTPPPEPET

[11] = molecular target: T2, Replicative DNA helicase DnaB (Mycobacterium tuberculosis, UniProt P9WMR3); test: DnaB intein splicing inhibitors, dose response, biochemical, cell-free fluorescence (AID 449749); format: functional
T2 sequence (P9WMR3 whole entry): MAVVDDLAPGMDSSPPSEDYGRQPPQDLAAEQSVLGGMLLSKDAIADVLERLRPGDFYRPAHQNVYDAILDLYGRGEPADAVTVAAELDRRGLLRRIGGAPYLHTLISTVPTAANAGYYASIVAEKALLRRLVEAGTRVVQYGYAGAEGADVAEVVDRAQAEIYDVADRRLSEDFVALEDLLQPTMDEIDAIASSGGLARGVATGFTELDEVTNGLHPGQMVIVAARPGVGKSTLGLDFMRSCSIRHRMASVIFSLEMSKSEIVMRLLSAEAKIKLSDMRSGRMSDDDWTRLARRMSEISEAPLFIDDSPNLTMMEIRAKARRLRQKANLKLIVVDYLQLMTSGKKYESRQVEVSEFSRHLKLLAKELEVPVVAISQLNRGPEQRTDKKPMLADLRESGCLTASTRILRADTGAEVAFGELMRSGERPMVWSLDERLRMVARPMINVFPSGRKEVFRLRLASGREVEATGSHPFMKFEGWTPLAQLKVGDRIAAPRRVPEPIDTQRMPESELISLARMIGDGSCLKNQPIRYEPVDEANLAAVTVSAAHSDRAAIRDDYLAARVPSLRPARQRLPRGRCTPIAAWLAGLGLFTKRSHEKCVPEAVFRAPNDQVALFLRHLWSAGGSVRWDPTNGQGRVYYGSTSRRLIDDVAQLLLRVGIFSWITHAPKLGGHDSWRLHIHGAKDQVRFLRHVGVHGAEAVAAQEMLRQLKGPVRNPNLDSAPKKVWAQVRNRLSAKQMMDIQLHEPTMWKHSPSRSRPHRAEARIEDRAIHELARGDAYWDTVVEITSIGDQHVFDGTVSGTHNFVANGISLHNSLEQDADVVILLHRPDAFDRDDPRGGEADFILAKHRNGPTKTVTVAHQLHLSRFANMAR

[12] = molecular target: T3, Protein RecA (Mycobacterium tuberculosis, UniProt P9WHJ3); test: Fluorescence Cell-Free Homogeneous Dose Retest to Identify Inhibitors of RecA-Intein Splicing Activity. [Related pubchem assays (depositor defined):AID2097, AID2223, AID489010, AID492950]; format: functional
T3 sequence (P9WHJ3 whole entry): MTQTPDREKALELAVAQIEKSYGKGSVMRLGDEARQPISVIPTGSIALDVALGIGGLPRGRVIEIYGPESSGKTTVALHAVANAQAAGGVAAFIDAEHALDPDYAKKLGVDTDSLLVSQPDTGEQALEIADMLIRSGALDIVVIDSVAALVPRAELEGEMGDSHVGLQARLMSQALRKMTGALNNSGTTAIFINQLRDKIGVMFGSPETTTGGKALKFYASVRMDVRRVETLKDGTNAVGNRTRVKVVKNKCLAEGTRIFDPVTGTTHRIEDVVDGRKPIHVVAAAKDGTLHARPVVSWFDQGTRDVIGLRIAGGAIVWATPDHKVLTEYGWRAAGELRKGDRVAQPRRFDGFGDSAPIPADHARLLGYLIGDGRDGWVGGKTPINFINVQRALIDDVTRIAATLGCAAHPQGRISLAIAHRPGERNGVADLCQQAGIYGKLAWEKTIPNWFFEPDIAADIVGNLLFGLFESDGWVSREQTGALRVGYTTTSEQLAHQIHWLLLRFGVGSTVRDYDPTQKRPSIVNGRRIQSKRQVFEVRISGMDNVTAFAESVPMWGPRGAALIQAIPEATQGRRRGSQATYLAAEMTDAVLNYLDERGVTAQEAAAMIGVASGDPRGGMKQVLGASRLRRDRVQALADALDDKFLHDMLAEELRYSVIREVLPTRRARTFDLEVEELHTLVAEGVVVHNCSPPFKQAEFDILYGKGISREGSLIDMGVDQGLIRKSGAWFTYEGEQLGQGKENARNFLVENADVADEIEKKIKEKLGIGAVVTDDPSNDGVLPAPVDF

[13] = test system: Escherichia coli; test: microbe, parasite or virus in culture
[14] = molecular target: T4, Leucine aminopeptidase (Plasmodium falciparum 3D7, UniProt Q8IL11); test: P. falciparum M17LAP inhibitors, primary screen, biochemical, fluorogenic H-Leu-NHMec substrate, 1536-well (AID 1619); format: functional
T4 sequence (Q8IL11 whole entry): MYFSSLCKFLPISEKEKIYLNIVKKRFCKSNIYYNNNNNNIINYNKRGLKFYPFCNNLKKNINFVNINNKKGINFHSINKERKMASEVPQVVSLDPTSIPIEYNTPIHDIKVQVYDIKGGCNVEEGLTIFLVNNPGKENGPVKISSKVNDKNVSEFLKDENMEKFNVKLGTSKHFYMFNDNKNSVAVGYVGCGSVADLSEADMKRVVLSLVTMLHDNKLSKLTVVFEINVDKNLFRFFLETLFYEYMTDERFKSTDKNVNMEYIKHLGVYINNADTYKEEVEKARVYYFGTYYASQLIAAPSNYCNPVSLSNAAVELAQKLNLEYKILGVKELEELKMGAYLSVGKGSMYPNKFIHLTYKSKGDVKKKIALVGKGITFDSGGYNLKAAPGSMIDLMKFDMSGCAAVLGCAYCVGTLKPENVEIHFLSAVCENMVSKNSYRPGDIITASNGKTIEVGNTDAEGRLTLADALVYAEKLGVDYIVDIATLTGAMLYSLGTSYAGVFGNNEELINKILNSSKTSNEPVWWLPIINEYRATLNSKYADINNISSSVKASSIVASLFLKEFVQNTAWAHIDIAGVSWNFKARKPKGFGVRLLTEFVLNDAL

[15] = cytotoxicity toward DRD oncogenic fibroblasts, dose response, cell-based, non-viral oncogenic, luminescence (AID 1934); format: functional; conditions: Homo sapiens
[16] = test system: BJ; test: cells; format: functional, cell-based, Homo sapiens; conditions: Homo sapiens, BJ
[17] = test system: BJ; test: cytotoxicity toward BJ-TERT fibroblasts, dose response, cell-based, RAS-independent, luminescence (AID 1933); format: functional; conditions: Homo sapiens
[18] = test system: BJ; test: cytotoxicity toward BJ-TERT-LT-ST fibroblasts, dose response, cell-based, RAS-independent, luminescence (AID 1935); format: functional; conditions: Homo sapiens;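 note: BJ fibroblasts immortalized with TERT plus LT and ST oncogenes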
[19] = molecular target: T5, Aminopeptidase N (Plasmodium falciparum FcB1/Columbia, UniProt O96935); test: P. falciparum M1AAP inhibitors, biochemical, fluorogenic H-Leu-NHMec substrate, 1536-well (AID 1445); parameters: species or system Plasmodium falciparum 3D7, 3D7
T5 sequence (O96935 whole entry): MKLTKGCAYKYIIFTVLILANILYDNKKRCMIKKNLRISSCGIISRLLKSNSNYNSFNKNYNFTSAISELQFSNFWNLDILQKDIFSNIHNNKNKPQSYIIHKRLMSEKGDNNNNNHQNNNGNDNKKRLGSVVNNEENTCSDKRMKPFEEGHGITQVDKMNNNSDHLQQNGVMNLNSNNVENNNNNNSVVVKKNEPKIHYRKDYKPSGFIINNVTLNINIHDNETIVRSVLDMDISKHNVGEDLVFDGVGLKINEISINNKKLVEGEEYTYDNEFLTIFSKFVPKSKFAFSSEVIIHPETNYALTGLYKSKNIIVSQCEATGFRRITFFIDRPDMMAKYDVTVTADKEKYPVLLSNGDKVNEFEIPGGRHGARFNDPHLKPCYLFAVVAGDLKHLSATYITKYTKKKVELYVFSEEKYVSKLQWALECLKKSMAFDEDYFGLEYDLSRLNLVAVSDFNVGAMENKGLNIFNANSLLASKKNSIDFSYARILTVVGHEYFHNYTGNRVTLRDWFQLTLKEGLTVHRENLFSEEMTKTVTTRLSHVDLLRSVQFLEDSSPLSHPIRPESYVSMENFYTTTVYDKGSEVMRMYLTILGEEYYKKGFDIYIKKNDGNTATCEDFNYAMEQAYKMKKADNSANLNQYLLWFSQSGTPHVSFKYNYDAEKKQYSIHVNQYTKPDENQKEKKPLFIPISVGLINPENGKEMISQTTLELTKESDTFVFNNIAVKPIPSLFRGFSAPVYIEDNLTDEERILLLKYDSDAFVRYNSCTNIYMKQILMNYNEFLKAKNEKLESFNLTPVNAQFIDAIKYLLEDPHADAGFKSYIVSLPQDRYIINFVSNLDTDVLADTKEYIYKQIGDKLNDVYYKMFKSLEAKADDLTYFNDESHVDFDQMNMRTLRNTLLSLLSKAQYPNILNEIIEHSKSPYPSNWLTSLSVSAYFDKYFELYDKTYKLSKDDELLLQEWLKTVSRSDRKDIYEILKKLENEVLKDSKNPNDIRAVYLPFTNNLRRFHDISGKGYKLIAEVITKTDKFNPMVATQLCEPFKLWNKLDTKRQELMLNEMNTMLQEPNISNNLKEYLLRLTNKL

[20] = NIH-3T3 fibroblast cytotoxicity, dose response, cytotoxicity control, cell-based, fluorescence, Alamar Blue, secondary assay (AID 2327); format: functional;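 note: NIH-3T3 mouse fibroblasts cultured with fluconazole at 8 µg/mL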
[21] = cells; format: functional, cell-based
[22] = test system: INS1; test: beta cell apoptosis inhibitors, cytokine rescue, dose response, luminescence, retest (AID 449756); format: functional, cell-based; conditions: Rattus norvegicus;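 note: cell death triggered by IL-1 beta plus TNF-alpha plus IFN-gamma mixture; protective hits raise ATP signal compared with cytokine alone wells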
[23] = cells; format: functional, cell-based; remark: listed apart in the source
[24] = C. albicans growth with fluconazole, confirmation, fluorescence, retest (AID 2467); format: functional, cell-based

Eukaryotic translation initiation factor 4E, sequence (P63073 whole entry): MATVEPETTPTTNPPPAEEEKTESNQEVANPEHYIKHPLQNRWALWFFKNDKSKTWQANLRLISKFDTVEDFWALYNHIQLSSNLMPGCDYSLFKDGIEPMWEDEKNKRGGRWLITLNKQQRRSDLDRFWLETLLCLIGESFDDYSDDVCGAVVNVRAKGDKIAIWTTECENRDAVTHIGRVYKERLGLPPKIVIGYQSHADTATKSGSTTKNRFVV

Compound: Cc1c(Cl)cccc1NC(=O)CCC(=O)NNC(=O)c1ccccc1Cl
- IC50 [1]: > 64 µM (inactive)

Compound: COc1cc(-c2[nH]ncc2CN2CCN(Cc3cccs3)CC2)cc(OC)c1OC
- IC50 [1]: 50 µM (inactive)

Compound: c1ccc2c(-c3ccncc3)c[nH]c2c1
- AC50 [2]: 2.41 µM (active)
- AC50 [3]: 144 µM (active)

Compound: CC(C)N(C(=O)c1sc2cc([N+](=O)[O-])ccc2c1Cl)C(C)C
- IC50 [4]: 1.98 µM (not active)

Compound: CCn1ncc(C2=NOC(C(=O)NCc3ccc(Cl)cc3)C2)c1C (stereo unspecified)
- IC50 [5]: > 80 µM (inactive)

Compound: Cc1ccc(C(C)C)c(OCc2nc(-c3nonc3N)no2)c1
- IC50 [1]: > 64 µM (inactive)

Compound: CC(=O)c1cccc(NC(=O)c2nc(-c3ccccc3)oc2C)c1
- IC50 [1]: 50 µM (inactive)

Compound: Cc1cnc(NC(=O)COc2cccc3c2OC(C)(C)C3)s1
- CC50 [6]: > 25 µM (active)
- CC50 [7]: 30.2 µM (active)
- IC50 [8]: 22.2 µM (active)
- IC50 [9]: 13 µM (active)

Compound: COc1cc(C=C2C(=O)c3ccccc3C2=O)ccc1O
- AC50 [2]: 0.585 µM (active)
- IC50 [10]: 15.1 µM (active)
- AC50 [11]: > 380 µM (inactive)
- EC50 [12]: 22.9 µM (active)

Compound: Cc1ccccc1NC(=O)CCN1CCN(CCO)CC1
- AC50 [13]: 23.6 µM (active)

Compound: Cc1cccc(C)c1NC(=O)CSc1ncnc2nc[nH]c12
- IC50 [14]: 39.9 µM (active)

Compound: CCOC(=O)Cn1c(-c2nonc2NC(=O)c2ccccc2F)nc2ccccc21
- CC50 [7]: > 6.25 µM (active)
- IC50 [8]: 4.57 µM (active)
- IC50 [9]: 0.98 µM (active)

Compound: O=C(CSc1nnc[nH]1)Nc1ccc2c(c1)OCCO2
- IC50 [14]: 64.9 µM (active)

Compound: CC1CC(=O)N(CC(=O)Nc2ccc3c(c2)OCO3)c2ccccc2S1 (stereo unspecified)
- IC50 [14]: 21.9 µM (active)

Compound: COc1ccccc1N1CCN(C(=O)CSc2nc(-c3ccccc3)cc(=O)[nH]2)CC1
- IC50 [14]: 16 µM (active)

Compound: Cc1ccc(C(C(=O)NC2CCCC2)N(C(=O)Cc2cccs2)c2ccc(C)c(C)c2)o1 (stereo unspecified)
- IC50 [4]: 10.9 µM (not active)

Compound: CCOC(=O)C1=C(NC(=S)NC(=O)c2ccccc2)c2ccccc2CC1C(C)C (stereo unspecified)
- CC50 [6]: > 25 µM (active)
- EC50 [15]: 60.6 µM (active)
- CC50 [7]: 9.61 µM (active)
- EC50 [16]: 54.1 µM (inconclusive)
- EC50 [17]: > 150 µM (not active)
- EC50 [18]: > 150 µM (not active)
- IC50 [8]: 3.58 µM (active)
- IC50 [9]: 9.18 µM (active)

Compound: O=C(O)Cn1cc(/C=C2/SC(=O)N(CC(=O)N3CCCCCC3)C2=O)c2ccccc21
- IC50 [19]: 82.3 µM (active)

Compound: COc1cccc(/C=N/NC(=O)c2[nH]nc3c2CCc2ccccc2-3)c1O
- EC50 [20]: 9.81 µM (active)
- EC50 [21]: > 350 µM (not active)
- AC50 [22]: 0.796 µM (active)
- AC50 [3]: 5.71 µM (active)
- EC50 [23]: 9.85 µM (active)
- IC50 [5]: 54 µM (inactive)
- EC50 [24]: 1.49 µM (active)
